Experimental data published in PubChem BioAssay (NCI).
“And” between values parts separate entries of the source, which are not always exact repeats. Identical values can stand only once.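 Tested at 5 concentrations; 48 h exposure; 96-well plates; endpoints linearly interpolated, else capped at highest concentration. The concentration for 50% growth inhibition is given as GI50. TGI is the concentration that stops growth completely.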

Assays:
Assay in all cases: NCI-60 cell line screen, 48 h
PC-3 prostate = tested on: PC-3 prostate
OVCAR-5 ovarian = tested on: OVCAR-5 ovarian
COLO 205 colon = tested on: COLO 205 colon
SW-620 colon = tested on: SW-620 colon
SF-295 CNS = tested on: SF-295 CNS
MOLT-4 leukemia = tested on: MOLT-4 leukemia
NCI-H226 lung = tested on: NCI-H226 lung
A549 NSCLC = tested on: A549 NSCLC
KM12 colon = tested on: KM12 colon
ACHN renal = tested on: ACHN renal

SMILES | TGI (PC-3 prostate) | TGI (OVCAR-5 ovarian) | TGI (COLO 205 colon) | TGI (SW-620 colon) | TGI (SF-295 CNS) | TGI (MOLT-4 leukemia) | TGI (NCI-H226 lung) | TGI (A549 NSCLC) | TGI (KM12 colon) | TGI (ACHN renal) | GI50 (PC-3 prostate) | GI50 (OVCAR-5 ovarian) | GI50 (COLO 205 colon) | GI50 (SW-620 colon) | GI50 (SF-295 CNS) | GI50 (MOLT-4 leukemia) | GI50 (NCI-H226 lung) | GI50 (A549 NSCLC) | GI50 (KM12 colon) | GI50 (ACHN renal)
COc1ccc2[nH]c3c(C)c4c(c(C)c3c2c1)CN(C)C=C4 | 81.3 µM | 47 µM | 10.3 µM | 18.3 µM | 2.7 µM | 37.7 µM | 1.36 µM | 23.6 µM | 10.6 µM | 64 µM | – | – | – | – | – | – | – | – | – | –
Cc1cc(NC(=O)NCCOc2ccc(N3C(N)=NC(N)=NC3(C)C)cc2Cl)ccc1S(=O)(=O)F | 22.3 µM | > 100 µM | 30.4 µM | > 100 µM | > 85.1 µM | > 100 µM | > 100 µM | > 68.3 µM | > 44.3 µM | > 100 µM | 0.143 µM | 1.44 µM | 1.4 µM | 0.661 µM | 5.16 µM | 4.31 µM | 8.57 µM | 1.4 µM | 1.04 µM | 25 µM
CCC/C=C/C=C/C(=O)OC1/C(=C/C(=O)OC)CC2CC(C(C)O)OC(=O)CC(O)CC3CC(OC(C)=O)C(C)(C)C(O)(CC4C/C(=C/C(=O)OC)CC(/C=C/C(C)(C)C1(O)O2)O4)O3 (centres undefined) | 11 µM and > 12.5 µM | > 12.5 µM | 6.88 µM and 11 µM and > 12.5 µM | > 10.9 µM and 4.91 µM and > 12.5 µM | > 10.9 µM and 11 µM and > 12.5 µM | 10.6 µM and 10.5 µM and > 12.5 µM | > 10.9 µM and 11 µM and > 12.5 µM | 8.17 µM and 11 µM and > 12.5 µM | > 10.9 µM and 9.07 µM and > 12.5 µM | 11 µM and > 12.5 µM | > 12.5 µM | > 11 µM | – | > 10.9 µM and 2.99 µM and > 12.5 µM | > 10.9 µM and 6.77 µM and > 12.5 µM | 5.48 µM and 3.26 µM and > 12.5 µM | > 10.9 µM and 9.74 µM | 2.58 µM and 5.95 µM and > 12.5 µM | > 10.9 µM and 6.75 µM and > 12.5 µM | > 12.5 µM
O=C(O)CCC(O)=C1S(=O)(=O)OCCOS1(=O)=O | > 100 µM | > 100 µM | > 100 µM | > 100 µM | > 100 µM | > 100 µM | > 100 µM | > 100 µM | > 100 µM | > 100 µM | – | – | – | – | – | – | – | – | – | –
Nc1[nH]nc(Nc2ccccc2)c1-c1nc2ccccc2s1 | 3.39 µM | 8.77 µM | 3.92 µM | 7.29 µM | 3.27 µM | 7.81 µM | 17 µM | 11.9 µM | 3.6 µM | 6.27 µM | 1.58 µM | 2.26 µM | 1.89 µM | 2.58 µM | 1.56 µM | 0.683 µM | 3.71 µM | 2.96 µM | 1.61 µM | 2.08 µM
COc1ccc(CCN2CCCn3c2nc2ccccc2c3=O)cc1 | > 100 µM | > 100 µM | 1.13 µM | > 100 µM | > 54.2 µM | > 100 µM | > 100 µM | > 100 µM | > 20.5 µM | > 100 µM | 0.127 µM | 0.95 µM | 0.0555 µM | 0.0508 µM | 0.0597 µM | 0.0779 µM | 6.43 µM | 0.087 µM | 0.0445 µM | 0.978 µM
O=C1/C(=C/c2ccc(F)cc2)COc2ccc(O)c(O)c21 | > 100 µM | 8.99 µM | 10.3 µM | 11.3 µM | > 100 µM | > 100 µM | 7.08 µM | > 100 µM | 6.82 µM | 2.89 µM | 1.16 µM | 3 µM | 2.76 µM | 2.03 µM | 8.09 µM | 1.37 µM | 2.47 µM | 3.32 µM | 1.99 µM | 1.43 µM
Cc1cccc(CNc2c3ccccc3nc3ccccc23)c1 | 7.11 µM | 6.81 µM | 3.89 µM | 5.63 µM | 6.67 µM | 11.3 µM | 6.02 µM | 4.86 µM | 12.1 µM | 3.47 µM | 1.99 µM | 1.92 µM | 1.69 µM | 1.74 µM | 2.13 µM | 3.06 µM | 1.99 µM | 1.88 µM | 3.16 µM | 1.52 µM
N#CC1=C(N)NC(=O)C(C#N)C12Nc1ccccc1S2 (centres undefined) | > 100 µM | > 100 µM | > 100 µM | > 100 µM | > 100 µM | > 100 µM | > 100 µM | > 100 µM | > 100 µM | > 100 µM | 60.4 µM | > 100 µM | 89.9 µM | > 100 µM | 50.6 µM | 95.8 µM | 41.3 µM | > 100 µM | 82 µM | > 100 µM
O=C(c1ccc(Cl)cc1Cl)N1CCN(C(=O)c2ccc(Cl)cc2Cl)C1=S | 68.3 µM | 60.4 µM | 37.7 µM | 98.2 µM | 61.7 µM | 43.5 µM | 60.1 µM | 43.2 µM | 29.4 µM | 45.7 µM | 22.7 µM | 21.6 µM | 21 µM | 28.2 µM | 22.9 µM | 20.5 µM | 40.9 µM | 20.1 µM | 15.3 µM | 21.3 µM
COc1ccc2c(=O)c(-c3cc(OC)c(OC)cc3OC)coc2c1 | > 100 µM | > 100 µM | 42.6 µM | > 100 µM | 12.5 µM | > 100 µM | > 100 µM | > 100 µM | > 100 µM | > 100 µM | – | – | – | – | – | – | – | – | – | –
Nc1nc(N)nc(CCCCc2nc(N)nc(N)n2)n1 | > 100 µM | > 100 µM | > 100 µM | > 100 µM | > 100 µM | > 100 µM | > 100 µM | > 100 µM | > 100 µM | > 100 µM | – | – | – | – | – | – | – | – | – | –
O=C1c2ccccc2C(=O)N1c1ccc(Cc2ccc(N3C(=O)c4ccccc4C3=O)cc2)cc1 | > 100 µM | > 100 µM | > 100 µM | > 100 µM | > 100 µM | > 100 µM | > 100 µM | > 100 µM | > 100 µM | > 100 µM | – | – | – | – | – | – | – | – | – | –
CCc1nc(N)nc(N)c1C#CC(C)c1ccc(-c2ccncc2)cc1Cl (centres undefined) | 4.85 µM and 12.5 µM | 6.17 µM and 18.6 µM | 2.58 µM and 11.7 µM | 6.58 µM and 14.9 µM | 0.809 µM and 4.24 µM | 4.62 µM and 8.45 µM | 6.56 µM and 28.3 µM | 2 µM and 11.4 µM | 5.73 µM and 14.5 µM | 4.57 µM and 13.7 µM | < 0.005 µM | 0.115 µM and 0.133 µM | 0.0387 µM and 0.0515 µM | < 0.005 µM | 0.00508 µM and 0.0141 µM | 0.0276 µM and 0.0493 µM | 0.264 µM and 0.86 µM | < 0.005 µM | 0.0271 µM and 0.0678 µM | 0.00775 µM and 0.0304 µM
COC(=O)NC1(NC(=O)OC)NC(=O)c2ccccc2N1 | > 100 µM | > 100 µM | > 100 µM | > 100 µM | > 100 µM | > 100 µM | > 100 µM | > 100 µM | > 100 µM | > 100 µM | – | – | – | – | – | – | – | – | – | –
CN[C@@H](C)C(=O)N[C@H](C(=O)N1CCC[C@H]1c1nc(C(=O)c2ccc(F)cc2)cs1)C1CCCCC1 | > 73.6 µM | > 78.9 µM | 31.9 µM | > 77.6 µM | 46.1 µM | 57 µM | > 100 µM | > 100 µM | 51.4 µM | > 100 µM | 24.1 µM | 27 µM | 16.5 µM | 27.4 µM | 19.4 µM | 20 µM | 31.2 µM | 35.2 µM | 21.8 µM | 26.6 µM
O=C(CSSCC(=O)c1ccc(Cl)cc1)c1ccc(Cl)cc1 | 30.5 µM | 21.5 µM | 29.8 µM | 23.6 µM | 15.2 µM | > 100 µM | 30.7 µM | 43.2 µM | 24.4 µM | 24.1 µM | 6.12 µM | 5.83 µM | 14.2 µM | 4.13 µM | 2.58 µM | 3.28 µM | 11.7 µM | 10.4 µM | 3.82 µM | 8.75 µM
Nc1c(C(=O)c2cccc(-c3cccnc3)c2)cnn1-c1ccc(F)cc1 | > 25 µM | > 25 µM | > 25 µM | > 25 µM | > 25 µM | > 25 µM | > 25 µM | > 25 µM | > 25 µM | > 25 µM | > 25 µM | > 25 µM | > 25 µM | > 25 µM | > 25 µM | > 25 µM | > 16.1 µM | > 25 µM | > 25 µM | > 25 µM
